# In PubChem BioAssay (NCI):
#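 1) Cells in 96-well plates. 2) Compound, 48 h, 5 concentrations. 3) Linear interpolation between surrounding doses. 4) Unreached endpoint = highest concentration. GI50 marks 50% less growth. At the TGI there is no net growth.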
# Columns and labels:
# Assay in all cases: DTP human tumour cell line panel, 48 h
# 786-0 renal = test system: 786-0 renal
# A498 renal = test system: A498 renal
# A549 NSCLC = test system: A549 NSCLC
# ACHN renal = test system: ACHN renal
# BT-549 breast = test system: BT-549 breast
# CAKI-1 renal = test system: CAKI-1 renal
# CCRF-CEM leukemia = test system: CCRF-CEM leukemia
# COLO 205 colon = test system: COLO 205 colon
# DU-145 prostate = test system: DU-145 prostate
# EKVX NSCLC = test system: EKVX NSCLC
# HCC-2998 colon = test system: HCC-2998 colon
# HCT-116 colon = test system: HCT-116 colon
# HCT-15 colon = test system: HCT-15 colon
# HL-60(TB) leukemia = test system: HL-60(TB) leukemia
# HOP-62 NSCLC = test system: HOP-62 NSCLC
# HOP-92 NSCLC = test system: HOP-92 NSCLC
# HS 578T breast = test system: HS 578T breast
# HT29 colon = test system: HT29 colon
# IGROV1 ovarian = test system: IGROV1 ovarian
# K-562 leukemia = test system: K-562 leukemia
# KM12 colon = test system: KM12 colon
# LOX IMVI melanoma = test system: LOX IMVI melanoma
# M14 melanoma = test system: M14 melanoma
# MALME-3M melanoma = test system: MALME-3M melanoma
# MCF7 breast = test system: MCF7 breast
# MDA-MB-231 breast = test system: MDA-MB-231 breast
# MDA-MB-435 = test system: MDA-MB-435
# MDA-MB-468 breast = test system: MDA-MB-468 breast
# MOLT-4 leukemia = test system: MOLT-4 leukemia
# NCI-H226 lung = test system: NCI-H226 lung
# NCI-H23 lung = test system: NCI-H23 lung
# NCI-H460 lung = test system: NCI-H460 lung
# NCI-H522 lung = test system: NCI-H522 lung
# NCI/ADR-RES ovarian = test system: NCI/ADR-RES ovarian
# OVCAR-3 ovarian = test system: OVCAR-3 ovarian
# OVCAR-4 ovarian = test system: OVCAR-4 ovarian
# OVCAR-5 ovarian = test system: OVCAR-5 ovarian
# OVCAR-8 ovarian = test system: OVCAR-8 ovarian
# PC-3 prostate = test system: PC-3 prostate
# RPMI-8226 leukemia = test system: RPMI-8226 leukemia
# RXF 393 renal = test system: RXF 393 renal
# SF-268 CNS = test system: SF-268 CNS
# SF-295 CNS = test system: SF-295 CNS
# SF-539 CNS = test system: SF-539 CNS
# SK-MEL-2 melanoma = test system: SK-MEL-2 melanoma
# SK-MEL-28 melanoma = test system: SK-MEL-28 melanoma
# SK-MEL-5 melanoma = test system: SK-MEL-5 melanoma
# SK-OV-3 ovarian = test system: SK-OV-3 ovarian
# SN12C renal = test system: SN12C renal
# SNB-19 CNS = test system: SNB-19 CNS
# SNB-75 CNS = test system: SNB-75 CNS
# SR leukemia = test system: SR leukemia
# SW-620 colon = test system: SW-620 colon
# T-47D breast = test system: T-47D breast
# TK-10 renal = test system: TK-10 renal
# U251 CNS = test system: U251 CNS
# UACC-257 melanoma = test system: UACC-257 melanoma
# UACC-62 melanoma = test system: UACC-62 melanoma
# UO-31 renal = test system: UO-31 renal
smiles,measurement,setting,value
O=C(Nc1cccc(C(F)(F)F)c1)c1cncc(C#Cc2cnc3ccc(N4CCOCC4)nn23)c1,GI50,786-0 renal,8.11 µM
same,TGI,786-0 renal,42.9 µM
same,GI50,A498 renal,5.53 µM
same,TGI,A498 renal,16.6 µM
same,GI50,A549 NSCLC,8.38 µM
same,TGI,A549 NSCLC,> 86.8 µM
same,GI50,ACHN renal,3.67 µM
same,TGI,ACHN renal,42.3 µM
same,GI50,BT-549 breast,5.13 µM
same,TGI,BT-549 breast,26.3 µM
same,GI50,CAKI-1 renal,4.23 µM
same,TGI,CAKI-1 renal,47.4 µM
same,GI50,CCRF-CEM leukemia,5.21 µM
same,TGI,CCRF-CEM leukemia,48.8 µM
same,GI50,COLO 205 colon,3.2 µM
same,TGI,COLO 205 colon,11.4 µM
same,GI50,DU-145 prostate,4.3 µM
same,TGI,DU-145 prostate,80 µM
same,GI50,EKVX NSCLC,4.49 µM
same,TGI,EKVX NSCLC,21 µM
same,GI50,HCC-2998 colon,5.97 µM
same,TGI,HCC-2998 colon,35.6 µM
same,GI50,HCT-116 colon,1.92 µM
same,TGI,HCT-116 colon,13.4 µM
same,GI50,HCT-15 colon,6.58 µM
same,TGI,HCT-15 colon,51.2 µM
same,GI50,HL-60(TB) leukemia,0.834 µM
same,TGI,HL-60(TB) leukemia,42.3 µM
same,GI50,HOP-62 NSCLC,2.39 µM
same,TGI,HOP-62 NSCLC,35.4 µM
same,GI50,HOP-92 NSCLC,1.24 µM
same,TGI,HOP-92 NSCLC,3.47 µM
same,GI50,HS 578T breast,1.62 µM
same,TGI,HS 578T breast,5.45 µM
same,GI50,HT29 colon,3.12 µM
same,TGI,HT29 colon,20.8 µM
same,GI50,IGROV1 ovarian,2.08 µM
same,TGI,IGROV1 ovarian,12.4 µM
same,GI50,K-562 leukemia,1.89 µM
same,TGI,K-562 leukemia,> 86.8 µM
same,GI50,KM12 colon,0.00868 µM
same,TGI,KM12 colon,14.1 µM
same,GI50,LOX IMVI melanoma,2.55 µM
same,TGI,LOX IMVI melanoma,11.6 µM
same,GI50,M14 melanoma,3.47 µM
same,TGI,M14 melanoma,14.8 µM
same,GI50,MALME-3M melanoma,4.24 µM
same,TGI,MALME-3M melanoma,18.7 µM
same,GI50,MCF7 breast,2.76 µM
same,TGI,MCF7 breast,26.4 µM
same,GI50,MDA-MB-231 breast,1.13 µM
same,TGI,MDA-MB-231 breast,9.33 µM
same,GI50,MDA-MB-435,4.33 µM
same,TGI,MDA-MB-435,18.2 µM
same,GI50,MDA-MB-468 breast,12.8 µM
same,TGI,MDA-MB-468 breast,27 µM
same,GI50,MOLT-4 leukemia,14.6 µM
same,TGI,MOLT-4 leukemia,> 86.8 µM
same,GI50,NCI-H226 lung,1.7 µM
same,TGI,NCI-H226 lung,> 86.8 µM
same,GI50,NCI-H23 lung,2.38 µM
same,TGI,NCI-H23 lung,11.7 µM
same,GI50,NCI-H460 lung,11 µM
same,TGI,NCI-H460 lung,27.4 µM
same,GI50,NCI-H522 lung,9.08 µM
same,TGI,NCI-H522 lung,24.5 µM
same,GI50,NCI/ADR-RES ovarian,9.21 µM
same,TGI,NCI/ADR-RES ovarian,44.6 µM
same,GI50,OVCAR-3 ovarian,8.91 µM
same,TGI,OVCAR-3 ovarian,52.6 µM
same,GI50,OVCAR-4 ovarian,15 µM
same,TGI,OVCAR-4 ovarian,> 86.8 µM
same,GI50,OVCAR-5 ovarian,2.74 µM
same,TGI,OVCAR-5 ovarian,38.6 µM
same,GI50,OVCAR-8 ovarian,5.9 µM
same,TGI,OVCAR-8 ovarian,82.2 µM
same,GI50,PC-3 prostate,10.8 µM
same,TGI,PC-3 prostate,72.6 µM
same,GI50,RPMI-8226 leukemia,12.5 µM
same,TGI,RPMI-8226 leukemia,44.9 µM
same,GI50,RXF 393 renal,2.36 µM
same,TGI,RXF 393 renal,6.36 µM
same,GI50,SF-268 CNS,4.58 µM
same,TGI,SF-268 CNS,34.8 µM
same,GI50,SF-295 CNS,11 µM
same,TGI,SF-295 CNS,29.8 µM
same,GI50,SF-539 CNS,1.11 µM
same,TGI,SF-539 CNS,3.01 µM
same,GI50,SK-MEL-2 melanoma,3.87 µM
same,TGI,SK-MEL-2 melanoma,13.6 µM
same,GI50,SK-MEL-28 melanoma,4.85 µM
same,TGI,SK-MEL-28 melanoma,23 µM
same,GI50,SK-MEL-5 melanoma,11.2 µM
same,TGI,SK-MEL-5 melanoma,22.8 µM
same,GI50,SK-OV-3 ovarian,7.01 µM
same,TGI,SK-OV-3 ovarian,48.8 µM
same,GI50,SN12C renal,2.49 µM
same,TGI,SN12C renal,25.3 µM
same,GI50,SNB-19 CNS,17.1 µM
same,TGI,SNB-19 CNS,49.8 µM
same,GI50,SNB-75 CNS,1.76 µM
same,TGI,SNB-75 CNS,7.71 µM
same,GI50,SR leukemia,2.94 µM
same,TGI,SR leukemia,> 86.8 µM
same,GI50,SW-620 colon,3.03 µM
same,TGI,SW-620 colon,> 86.8 µM
same,GI50,T-47D breast,9.23 µM
same,TGI,T-47D breast,62.1 µM
same,GI50,TK-10 renal,6.98 µM
same,TGI,TK-10 renal,51.9 µM
same,GI50,U251 CNS,15.4 µM
same,TGI,U251 CNS,67.2 µM
same,GI50,UACC-257 melanoma,10.1 µM
same,TGI,UACC-257 melanoma,56.6 µM
same,GI50,UACC-62 melanoma,2.74 µM
same,TGI,UACC-62 melanoma,13.4 µM
same,GI50,UO-31 renal,3.31 µM
same,TGI,UO-31 renal,19.2 µM
